Results published in patent publication US9492508B2, “Parathyroid hormone analogs and uses thereof” (The General Hospital Corporation, priority 2010, dated 2016).
Each block holds one compound with its values, some of them ahead of it. Square brackets hold non-standard residues; d marks the D form. Peptide text beside a SMILES is read from it. hArg = N=C(N)NCCCC[C@H](N)C(=O)O; Aib = CC(C)(N)C(=O)O

Tests used:
[1] = target: T1, human PTHR1 (R0) (Homo sapiens, UniProt Q03431); experiment: Competition binding, R0 conformation of human PTHR1 (COS-7 membranes, 125I-PTH(1-34) tracer, GTPγS); settings: FIG. 5A
T1 construct: expressed in transfected cells; host or cells: COS-7 cells (membranes)
T1 sequence (Q03431 27-593): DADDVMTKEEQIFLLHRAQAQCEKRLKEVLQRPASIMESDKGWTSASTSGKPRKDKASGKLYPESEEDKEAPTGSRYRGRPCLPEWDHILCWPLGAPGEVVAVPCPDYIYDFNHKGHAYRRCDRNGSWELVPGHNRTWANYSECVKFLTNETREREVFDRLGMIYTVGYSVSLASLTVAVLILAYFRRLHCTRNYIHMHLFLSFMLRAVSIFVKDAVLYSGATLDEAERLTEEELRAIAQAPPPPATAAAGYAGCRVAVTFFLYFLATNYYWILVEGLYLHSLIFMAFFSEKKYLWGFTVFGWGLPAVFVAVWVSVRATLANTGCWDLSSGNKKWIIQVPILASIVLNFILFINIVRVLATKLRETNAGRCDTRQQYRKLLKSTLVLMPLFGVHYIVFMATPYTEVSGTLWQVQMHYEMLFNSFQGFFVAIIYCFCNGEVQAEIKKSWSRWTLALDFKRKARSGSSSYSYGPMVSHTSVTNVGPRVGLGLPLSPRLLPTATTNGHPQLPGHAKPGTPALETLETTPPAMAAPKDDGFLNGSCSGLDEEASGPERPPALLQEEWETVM
Description: (§1) Briefly, the R^0 form of the receptor can be favored by addition of the non-hydrolyzable nucleotide analog GTPγS. The RG form can be favored, for example, by co-transfection of cells with a negative dominant Gαs subunit. […] Data are means of four experiments, each performed in duplicate. Curves were fit to the data using Graph-Pad Prism 4.0.
(§2) Here, competition binding assays for the R^0 and RG PTHR1 conformation were performed in membranes prepared from transfected COS-7 cells, as described by Dean et al., Mol Endocrinol 22:156-66, 2008. Data are means of three experiments, each performed in duplicate. Curves were fit to the data using Graph-Pad Prism 4.0.

[2] = target: T2, human PTHR1 (RG) (Homo sapiens, UniProt Q03431); experiment: Competition binding, RG conformation of human PTHR1 (COS-7 membranes); settings: mean of 3 experiments, read-out: Binding human PTHR1 IC50 (Log M) RG (converted)
T2 construct: expressed in transfected cells; host or cells: COS-7 cells (membranes)
T2 sequence (Q03431 27-593): T1 sequence (Q03431 27-593)
Description: as §1, §2

[3] = target: T3, rat PTHR1 (R0) (Rattus norvegicus, UniProt P25961); experiment: Competition binding, R0 conformation of rat PTHR1; settings: R0 conformation; read-out: Binding rat PTHR1 IC50 nM R0
T3 sequence (P25961 27-591): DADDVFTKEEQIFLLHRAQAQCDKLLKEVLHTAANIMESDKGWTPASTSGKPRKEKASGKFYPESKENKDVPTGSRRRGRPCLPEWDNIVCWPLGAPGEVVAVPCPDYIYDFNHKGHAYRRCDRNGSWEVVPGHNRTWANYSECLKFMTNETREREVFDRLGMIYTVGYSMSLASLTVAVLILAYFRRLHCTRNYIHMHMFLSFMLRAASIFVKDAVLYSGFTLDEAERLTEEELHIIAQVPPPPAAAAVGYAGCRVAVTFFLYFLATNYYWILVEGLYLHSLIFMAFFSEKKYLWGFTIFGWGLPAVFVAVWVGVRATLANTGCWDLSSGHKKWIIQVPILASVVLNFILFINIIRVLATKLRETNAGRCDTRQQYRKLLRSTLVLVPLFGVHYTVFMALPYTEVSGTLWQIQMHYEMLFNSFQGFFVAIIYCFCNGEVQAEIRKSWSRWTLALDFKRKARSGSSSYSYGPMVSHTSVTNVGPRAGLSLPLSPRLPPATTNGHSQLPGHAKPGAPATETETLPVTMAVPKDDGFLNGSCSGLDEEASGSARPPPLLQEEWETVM
Source text: as §1

[4] = target: T4, rat PTHR1 (RG) (Rattus norvegicus, UniProt P25961); experiment: Competition binding, RG conformation of rat PTHR1; settings: FIG. 1B
T4 construct: expressed in transfected cells
T4 sequence (P25961 27-591): T3 sequence (P25961 27-591)
Source text: as §1

[5] = tested on: MC3T3-E1 cells; experiment: cAMP RIA in intact MC3T3-E1 cells; assay type: cell-based, mouse; settings: 30 min, room temperature, IBMX
Description: cAMP stimulating activity of these polypeptides was also assessed, using two different methods: a radioimmunoassay (RIA; FIG. 2) and a cAMP responsive element fused to a luciferase gene (FIG. 3). Briefly, the RIA cAMP assays were performed in intact MC3T3-E1 cells, a mouse pre-osteoblastic cell line, in 96-well plates, as described by Okazaki et al. (Proc Natl Acad Sci USA 105:16525-30, 2008). […] The cAMP contents of the HCl lysates were then determined by RIA. Data are means of six experiments, each performed in duplicate. Curves were fit to the data using Graph-Pad Prism 4.0.

[6] = tested on: MC3T3-E1 cells; experiment: cAMP response following ligand wash-out in MC3T3-E1 cells; assay type: cell-based, mouse; settings: 100 nM ligand 5 min, then wash-out; FIGS. 7A, 7B
Description: Cells were treated at room temperature with vehicle or the indicated ligand (100 nM) for five minutes; for each ligand duplicate wells were used to obtain the initial (maximum cAMP values); in these wells, cells were co-incubated with ligand and IBMX. After five minutes of initial treatment, the buffer was removed, and, for the initial wells, the reactions were terminated by addition of 50 mM HCl. In the other wells, the cells were rinsed three times with buffer, and incubated in buffer for varying times, as indicated on the abscissa; after which the buffer was replaced by a buffer containing IBMX, and the cells were incubated for another five minutes. After that, the buffer was removed and the reactions were terminated by addition of 50 mM HCl. The cAMP contents of the HCl lysates were then determined by RIA.

[7] = Blood Ca++ responses in mice; assay type: in vivo, mice (C57 BL/6); settings: 5 nmol/kg s.c., 4, 6, 8 and 24 hours
Description: Blood Ca^++ responses in mice were also assayed. Mice (C57 BL/6) were injected subcutaneously with either vehicle or the indicated ligand to give a final dose of 5 nmol/kg body weight, and blood was withdrawn via the tail at times after injection and assessed for Ca^++ concentration using a Bayer Rapid Lab model 348 blood analyzer. […] A similar experiment using 10 nmol/kg by intravenous injection was also conducted with similar results (FIGS. 8C and 8D).

[8] = Solubility, in vitro precipitation assay (PBS pH 7.4 vs 10 mM acetic acid); assay type: physicochemical; settings: pH 7.4
Description: The relative solubilities of SP-PTH-AAK (SEQ ID NO:4) and SP-PTH (SEQ ID NO:11) in different buffers were assessed in an in vitro precipitation assay. For each polypeptide, two vials, each containing 50 μg of lyophilized polypeptide powder, were prepared; one vial was reconstituted in 50 μl of PBS at pH 7.4; the other vial was reconstituted in 50 μl of 10 mM acetic acid (pH 2.9) to give final concentrations of 1.0 mg/ml […]. After one hour at room temperature, the vials were centrifuged at 15,000×g for 2 minutes. The supernatant was removed and the protein content assayed using the Pierce BCA assay (Thermo Fischer Scientific, Rockford, Ill.). For each polypeptide, the content of the PBS sample was expressed as percent of the content of the corresponding acetic acid sample.

[9] = rat, in vivo, iv, 24.3 nmol/kg
[10] = in vivo; settings: Crl:CD(SD), rat, iv, 24.3 nmol/kg
[11] = target: T5, PD PTH receptor (Mus musculus, UniProt P41593, S489A/S491A/S492A/S493A/S495A/S501A/S504A); experiment: Blood calcium and cAMP in knock-in mice with phosphorylation-deficient (PD) PTH receptor vs wild-type; assay type: in vivo
T5 construct: endogenous in cells; host or cells: knock-in mice (in vivo)
T5 sequence (P41593 27-591 S489A/S491A/S492A/S493A/S495A/S501A/S504A): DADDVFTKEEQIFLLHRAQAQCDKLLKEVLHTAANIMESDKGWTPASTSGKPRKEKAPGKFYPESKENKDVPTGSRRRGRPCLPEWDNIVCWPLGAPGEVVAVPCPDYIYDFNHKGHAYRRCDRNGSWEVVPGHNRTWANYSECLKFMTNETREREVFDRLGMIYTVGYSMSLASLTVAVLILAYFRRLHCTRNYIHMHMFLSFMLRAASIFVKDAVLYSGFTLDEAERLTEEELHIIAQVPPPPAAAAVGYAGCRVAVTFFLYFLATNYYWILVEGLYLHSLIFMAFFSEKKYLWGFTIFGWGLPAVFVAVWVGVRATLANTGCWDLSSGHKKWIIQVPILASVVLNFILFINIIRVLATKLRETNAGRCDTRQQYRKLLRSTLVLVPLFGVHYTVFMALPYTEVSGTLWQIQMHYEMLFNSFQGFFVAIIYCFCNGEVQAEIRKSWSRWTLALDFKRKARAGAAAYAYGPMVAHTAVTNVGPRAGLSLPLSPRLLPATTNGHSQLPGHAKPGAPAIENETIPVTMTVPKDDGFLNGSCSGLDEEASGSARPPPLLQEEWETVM
Description: The activity of SP-PTH-AAK (SEQ ID NO:4) was tested in “knock-in” mice that express a PD PTH receptor in place of the wild-type PTH receptor (Bounoutas et al., Endocrinology 147: 4674, 2006).
Blood cAMP levels were also compared between the two types of mice.

- R0 binding at human PTH receptor as compared to PTH(1-34) [1]: enhanced R^0 binding
- IC50 [2]: 0.372 nM
- IC50 [3]: 0.7 nM
- binding to RG form of rat PTHR1, comparison in words [4]: increased
- EC50 [5]: 0.018 nM
- cAMP MC3T3-E1 cells EC50 (Log M) ([5]; 6 experiments): −10.7 ± 0.1 Log M
- solubility in PBS pH 7.4 (percent of acetic acid sample), in words [8]: solubility similar to hPTH(1-34)NH2
Compound: CC[C@H](C)[C@H](NC(=O)[C@H](CCC(=O)O)NC(=O)[C@H](C)NC(=O)[C@@H](NC(=O)[C@H](Cc1c[nH]cn1)NC(=O)[C@@H](NC(=O)[C@H](CCC(=O)O)NC(=O)[C@H](C)NC(=O)[C@@H](NC(=O)[C@H](CC(C)C)NC(=O)[C@H](CCCCN)NC(=O)[C@H](Cc1c[nH]cn1)NC(=O)[C@H](CC(C)C)NC(=O)[C@H](Cc1ccccc1)NC(=O)[C@H](C)NC(=O)[C@H](CCCNC(=N)N)NC(=O)[C@H](CCCNC(=N)N)NC(=O)[C@H](CCCNC(=N)N)NC(=O)[C@H](C)NC(=O)[C@H](CC(=O)O)NC(=O)[C@H](CCC(N)=O)NC(=O)[C@@H](NC(=O)[C@H](Cc1c[nH]c2ccccc12)NC(=O)[C@H](CCCCN)NC(=O)[C@H](C)NC(=O)[C@H](CCCCNC(=N)N)NC(=O)[C@H](CCC(N)=O)NC(=O)[C@H](Cc1c[nH]cn1)NC(=O)[C@H](CCSC)NC(=O)[C@H](CC(C)C)NC(=O)[C@H](CCC(N)=O)NC(=O)[C@@H](NC(=O)[C@H](CCC(=O)O)NC(=O)C(C)(C)NC(=O)[C@@H](NC(=O)[C@H](C)N)C(C)C)[C@@H](C)CC)[C@@H](C)CC)[C@@H](C)CC)[C@@H](C)CC)[C@@H](C)O)C(N)=O [AIB-SP-PTH-AAK, [Ala^1,12,18,22,Aib^3,Gln^10,Har^11,Trp^14,Lys^26]PTH(1-14)/PTHrP(15-36)] (H-AV[Aib]EIQLMHQ[hArg]AKWIQDARRRAFLHKLIAEIHTAEI-NH2; N-terminus assumed)
- cAMP MC3T3-E1 cells Emax (pmole/well) [5]: 57.9 ± 13.9 pmole/well
- cAMP-stimulating activity after ligand wash-out [6]: maintained cAMP-stimulating activity for longer periods of time than PTH(1-34)
- blood calcium levels at later time points vs PTH(1-34) or vehicle [7]: increased

- AUCinf [9]: 1315 pmol·min/mL
- AUClast [9]: 1308 pmol·min/mL
- MRT [10]: 11.4 min
- Vd [10]: 0.211 L/kg
- clearance [10]: 18.5 mL/min/kg
- half-life [10]: 7.78 min
Compound: CC[C@H](C)[C@H](NC(=O)[C@H](CCC(=O)O)NC(=O)[C@H](CO)NC(=O)[C@@H](NC(=O)[C@@H](N)CO)C(C)C)C(=O)N[C@@H](CCC(N)=O)C(=O)N[C@@H](CC(C)C)C(=O)N[C@@H](CCSC)C(=O)N[C@@H](Cc1cnc[nH]1)C(=O)N[C@@H](CC(N)=O)C(=O)N[C@@H](CC(C)C)C(=O)NCC(=O)N[C@@H](CCCCN)C(=O)N[C@@H](Cc1cnc[nH]1)C(=O)N[C@@H](CC(C)C)C(=O)N[C@@H](CC(N)=O)C(=O)N[C@@H](CO)C(=O)N[C@@H](CCSC)C(=O)N[C@@H](CCC(=O)O)C(=O)N[C@@H](CCCN=C(N)N)C(=O)N[C@H](C(=O)N[C@@H](CCC(=O)O)C(=O)N[C@@H](Cc1c[nH]c2ccccc12)C(=O)N[C@@H](CC(C)C)C(=O)N[C@@H](CCCN=C(N)N)C(=O)N[C@@H](CCCCN)C(=O)N[C@@H](CCCCN)C(=O)N[C@@H](CC(C)C)C(=O)N[C@@H](CCC(N)=O)C(=O)N[C@@H](CC(=O)O)C(=O)N[C@H](C(=O)N[C@@H](Cc1cnc[nH]1)C(=O)N[C@@H](CC(N)=O)C(=O)N[C@@H](Cc1ccccc1)C(=O)O)C(C)C)C(C)C [PTH(1-34), hPTH(1-34)OH, reference compound]

- increases in blood calcium levels in PD mice as compared to wild-type mice ([11]; FIGS. 17A, 17B): either reduced or eliminated
Compound: M-PTH(1-28)
- blood cAMP levels in PD mice as compared to wild-type mice ([11]; FIGS. 18A, 18B): increased in magnitude and prolonged in duration
